The structures appear in SMILES notation.

In one series the test system is IKK. Kind of series: Western blot of knee joint protein extracts, IKK. The class given is in vivo, rat. As to conditions: OA rats, CF101 treated vs control, FIG. 4C. An excerpt:
(§1) To explore the fate of the A3AR and downstream key signaling proteins participating in the NF-kB and Wnt signaling pathways, knee joints protein extracts from control and CF101 treated animal were subjected to Western blot analysis.

The subject of series [1] is mono-idoacetate (MIA) experimental osteoarthritis (OA). Briefly: MIA experimental osteoarthritis model, roentgenographic examination of knees. The class given is in vivo, rat. The following applies: MIA rats; CF101 100 μg/kg PO twice daily; FIGS. 3A-3D. The method, then:
(§2) In the following study the effect of IB-MECA (herein, at times, CF101) on the development of experimental osteoarthritis (OA) was determined. In this study the mono-idoacetate (MIA) experimental model was utilized. The MIA is a rat experimental model that rapidly reproduces the clinical and pathological characteristic of OA. […] Infra-articular injection of MIA induces chondrocyte death in the articular cartilage of rodent. Specifically, male Wistar rats (˜200 gr) (Harlan laboratories) were anesthetized with Isoflurane and the right leg was flexed at a 90° angle of the knee. The MIA was dissolved in physiological saline and 2 mg, at a volume of 50 μL were injected intra-articular of the right foot of each animal, using a 27-gauge, 0.5-inch needle. Treatment with CF101, 100 μg/kg, Per Oz (PO), twice daily was initiated at day 7 post-injection.

For series [2], the system named is human fibroblast like synoviocytes (FLS). Briefly: MTT proliferation assay, human fibroblast like synoviocytes. The class given is cell-based. The following applies: CF101 10 nM added for the last 24 hours of 72 hours, FLS from OA patients, FIG. 1A. The method, then:
The effect of IB-MECA (herein at times CF101) alone or in combination with MTX, on the proliferation of the human or rat fibroblast like synoviocytes (FLS) was tested. […] Human synovial fluid samples were collected from osteoarthritis (OA) patients undergoing paracenthesis. The fluid was centrifuged and the supernatant removed. The cells were resuspended in DMEM containing type I collagenase (4 mg/ml), for 2 hours, and shacked vigorously at 37°. The released cells in the supernatant were harvested by centrifugation and were cultured in DMEM containing 10% FBS, 2 mM glutamine, 100 U/ml penicillin, 100 μg/ml streptomycin, 1% non essential amino acids, 1% sodium pyruvate and […] HEPES buffer in a 37° C., 5% CO2 incubator. After overnight culture, non-adherent cells were removed. The adherent cells (FLS) were subcultured at a 1:2 ratio, and the cells from passages 4 through 10 were used in the experiments. The effect of CF101 alone or in combination with MTX, on the proliferation of the FLS was tested utilizing an MTT assay. The cells (5×10^4/ml cells) were incubated in 96-well microtiter plates for 72 hours in the growth medium. At the last 24 hours CF101 (10 nM) were added to the cultures.

For series [3] the following is noted: oral, healthy young men; cited from earlier work.
A further series concerns GSK-3β. Kind of series: Western blot of knee joint protein extracts, GSK-3β. It counts as in vivo, rat. The following applies: OA rats, CF101 treated vs control, FIG. 4E.
Source text: as §1
On the technique in general: In western blotting, separated proteins are transferred to a membrane and probed.

Another series concerns rat FLS. Kind of series: MTT proliferation assay, rat fibroblast like synoviocytes. It counts as cell-based. The following applies: CF101 10 nM added for the last 24 hours of 72 hours, FLS from adjuvant induced arthritis rats, FIG. 1B. The method, then: The effect of IB-MECA (herein at times CF101) alone or in combination with MTX, on the proliferation of the human or rat fibroblast like synoviocytes (FLS) was tested. […] Synovia tissue from adjuvant induced arthritis rats was collected. The tissue was minced and subjected for digestion in 4 mg/ml type I collagenase and 0.25 w/v trypsin in DMEM. The mixture was shacked vigorously for 4 hours at 37°. The released cells were separated from the supernatant by centrifugation and cultured in DMEM containing 15% FCS, 2 mM glutamine, 100 U/ml penicillin, 100 μg/ml streptomycin in a 37° C., 5% CO2 incubator. After overnight incubation the nonadherent cells were removed. The adherent cells (FLS) were sub-cultured at a 1:2 ratio, and the cells from passages 4 through 10 were used in the experiments. The effect of CF101 alone or in combination with MTX, on the proliferation of the FLS was tested utilizing an MTT assay. The cells (5×10^4/ml cells) were incubated in 96-well microtiter plates for 72 hours in the growth medium. At the last 24 hours CF101 (10 nM) were added to the cultures.
A general note: Tetrazolium assays rely on reduction of a dye to a coloured formazan, in cell work by metabolically active cells.

In the next series the target is T1, A3AR (Rattus norvegicus, UniProt P28647).
T1 construct: knee joints protein extracts from control and CF101 treated animal were subjected to Western blot analysis; from tissue; host or cells: rat knee joint (OA rats)
T1 sequence (P28647 1-320): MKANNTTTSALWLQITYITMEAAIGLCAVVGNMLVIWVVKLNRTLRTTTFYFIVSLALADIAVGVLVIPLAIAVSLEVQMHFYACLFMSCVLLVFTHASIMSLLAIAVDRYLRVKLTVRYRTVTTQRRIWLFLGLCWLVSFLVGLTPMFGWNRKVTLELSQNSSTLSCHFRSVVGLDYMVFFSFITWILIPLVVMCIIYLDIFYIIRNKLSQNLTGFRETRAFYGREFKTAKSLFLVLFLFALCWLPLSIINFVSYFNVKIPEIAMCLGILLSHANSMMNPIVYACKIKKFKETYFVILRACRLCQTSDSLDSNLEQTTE
Briefly: Western blot of knee joint protein extracts, A3AR. It counts as in vivo. The following applies: OA rats, CF101 treated vs control, FIG. 4A.
Source text: as §1

Series [4] deals with mono-idoacetate (MIA) experimental osteoarthritis (OA). Briefly: MIA experimental osteoarthritis model, knee diameter. The class given is in vivo, rat. As to conditions: male Wistar rats; CF101 100 μg/kg PO twice daily from day 7 post-injection; vs control group, P=9.48317E-06; FIG. 2. The procedure: as §2, with “post-injection. Knee diameter was measured using calibrated digital caliper adapted by reinforcing the tips for knee diameter measure. The results presented in FIG. 2 show the delta between the diameter of the MIA injected knee (Right knee) and the diameter of the MIA un-injected knee (Left knee) within the same animal. The group of the control is compared to the CF101 treated group (5 animals in each group).” for “post-injection.”

The next series has as its system PI3K. Kind of series: Western blot of knee joint protein extracts, PI3K. It counts as in vivo, rat. As to conditions: OA rats, CF101 treated vs control, FIG. 4B.
Source text: as §1

On to `CNC(=O)[C@H]1O[C@@H](n2cnc3c(NCc4cccc(I)c4)ncnc32)[C@H](O)[C@@H]1O` [CF101, 1-deoxy-1-{6-[({3-iodophenyl}methyl)amino]-9H-purine-9-yl}-N-methyl-β-D-ribofuranuronamide], for which the “IKK expression level in knee joints” value in the series on IKK is given as “down-regulation”. For the same compound, the “roentgenographic examination of knees” value in [1] was “normal tibial epiphysial line without sclerosis”. The “effect on the proliferation of human FLS” value in series [2] was “marked inhibitory effect”. For the same compound, the “half life in human plasma” value in [3] was 8 to 10 h. Moreover, the “GSK-3β expression level in knee joints” value in the series with GSK-3β is given as “up-regulated”. In addition, in the series on rat FLS, the “effect on the proliferation of rat FLS” value is “marked inhibitory effect”. Besides, the “A3AR expression level in knee joints” value on A3AR is recorded as “down-regulated”. The “development of tissue swelling (delta between diameter of MIA injected and un-injected knee)” value in series [4] is “significantly inhibited”. Besides, the “PI3K expression level in knee joints” value in the series with PI3K was “down-regulation”.
